Numbers after ± are expanded uncertainties.
Conditions: 298.15 K; 101.33 kPa; Liquid; Vibrating tube method

Structure (SMILES)	mass density [kg/m3]
CC(=O)N(C)C [N,N-dimethylethanamide]	936.214 ± 0.48
CN(C)C=O [dimethylformamide]	943.875 ± 0.25
CCCCCCC [heptane]	679.627 ± 0.27
CCCCCC [hexane]	655.248 ± 0.28

The remaining lines, values ahead:

mass density [kg/m3]	Structure (SMILES)
714.064 ± 0.41	CCCCCCCCC [nonane]
698.636 ± 0.41	CCCCCCCC [octane]

— the NIST ThermoML archive (doi:10.1021/je050428j)
